Measurements: patent US4740233A, “Substituted 1,2,4-triazolo[1,5-a]-pyrimidine-2-sulfonamides and compositions and methods of controlling undesired vegetation and suppressing the nitrification of ammonium nitrogen in soil” (The Dow Chemical Company, priority 1986, dated 1988)

Columns and labels:
[1] = system: nitrification of ammonium nitrogen; assay: Suppression of nitrification of ammonium nitrogen in soil; conditions: 27° C.
Procedure, shortened: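 Value is % NH4-N remaining after a two-week, 27° C incubation of treated soil held at 1/3 bar tension moisture. Nitrate was measured with an ion-selective electrode after extraction with ammonium sulfate solution and 10 min shaking.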

[2] = system: annual sugar beet variety (SLC03); assay: Plant growth regulator activity, postemergence; type: in vivo; conditions: for minimal effective concentration: Beta vulgaris, post-emergence, 672 h, 4 weeks after spraying, read-out: Bolting Inhibition (postemergence), concentration with observed effect
Text: Using a regular biennial variety, even a bolting-susceptible variety would require a cold treatment of around 10-16 weeks plus a hormone treatement in conjunction with specific light intensities. Thus, for a screening organism, we selected one which would consistently produce bolting on a regular schedule. The screen is run with an annual sugar beet variety (SLC03) provided by Dr. Richard J. Hecker, Fort Collins, Colo. This variety is an inbred which bolts in the 6- to 8-leaf stage without any need for vernalization. This allows the screen to be run entirely in the greenhouse with all 110 chemical compounds tested on one tray. The sugarbeets are grown in 3×3 inch square pots in a greenhouse sandy loam potting mix. The sugarbeets are sprayed with test compounds when they are 2 to 3 weeks old (2 true leaves). The compounds are dissolved in acetone and diluted with water containing Tween 20 as a wetting agent. The concentration of acetone in the final spray is 20% and the concentration of Tween 20 is 0.05 percent. The plants are examined for the appearance of a bolt 4 weeks after spraying.

wild oats [3] = assay: Preemergent control of plant species; type: in vivo; conditions: Avena fatua, pre-emergence, 336 h; 0.25 lb/acre; read-out: percent preemergent control
Procedure, shortened: (§1)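 Test compositions were applied evenly to the surface of freshly seeded soil beds and kept under greenhouse conditions for two weeks. Percent control reflects growth reduction compared with water-treated beds of the same species.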

corn [4] = assay: Preemergent control of plant species; type: in vivo, Zea mays; conditions: Zea mays, pre-emergence, 336 h; 0.25 lb/acre; read-out: percent preemergent control
Procedure, shortened: as §1

cotton [5] = assay: Preemergent control of plant species; type: in vivo, Gossypium spp.; conditions: Gossypium hirsutum, pre-emergence, 336 h; 0.25 lb/acre; read-out: percent preemergent control
Procedure, shortened: as §1

soybean [6] = assay: Preemergent control of plant species; type: in vivo, Glycine max.; conditions: Glycine max, pre-emergence, 336 h; 0.25 lb/acre; read-out: percent preemergent control
Procedure, shortened: as §1

annual morning glory [7] = assay: Preemergent control of plant species; type: in vivo, Ipomoea spp.; conditions: Ipomoea, pre-emergence, 336 h; 0.25 lb/acre; read-out: percent preemergent control
Procedure, shortened: as §1

rape [8] = assay: Preemergent control of plant species; type: in vivo, Brassica napus; conditions: Brassica napus, pre-emergence, 336 h; 0.25 lb/acre; read-out: percent preemergent control
Procedure, shortened: as §1

sorghum [9] = assay: Preemergent control of plant species; type: in vivo, Sorghum vulgare; conditions: Sorghum, pre-emergence, 336 h; 0.25 lb/acre; read-out: percent preemergent control
Procedure, shortened: as §1

sugar beet [10] = assay: Preemergent control of plant species; type: in vivo, Beta saccharifera; conditions: Beta vulgaris, pre-emergence, 336 h; 0.25 lb/acre; read-out: percent preemergent control
Procedure, shortened: as §1

barnyardgrass [11] = assay: Preemergent control of plant species; type: in vivo, Echinochloa crusgalli; conditions: Echinochloa crus-galli, pre-emergence, 336 h; 0.25 lb/acre; read-out: percent preemergent control
Procedure, shortened: as §1

rice [12] = assay: Preemergent control of plant species; type: in vivo, Oryza sativa; conditions: Oryza sativa, pre-emergence, 336 h; 0.25 lb/acre; read-out: percent preemergent control
Procedure, shortened: as §1

yellow nutsedge [13] = assay: Preemergent control of plant species; type: in vivo, Cyperus esculentus; conditions: Cyperus, pre-emergence, 336 h; 0.25 lb/acre; read-out: percent preemergent control
Procedure, shortened: as §1

wheat [14] = assay: Preemergent control of plant species; type: in vivo, Triticum aestivum; conditions: Triticum aestivum, pre-emergence, 336 h; 0.25 lb/acre; read-out: percent preemergent control
Procedure, shortened: as §1

yellow foxtail [15] = assay: Preemergent control of plant species; type: in vivo, Setaria lutescens; conditions: Setaria, pre-emergence, 336 h; 0.25 lb/acre; read-out: percent preemergent control
Procedure, shortened: as §1

johnson grass [16] = assay: Preemergent control of plant species; type: in vivo, Sorghum halepense; conditions: Sorghum halepense, pre-emergence, 336 h; 0.25 lb/acre; read-out: percent preemergent control
Procedure, shortened: as §1

velvetleaf [17] = assay: Preemergent control of plant species; type: in vivo, Abutilon theophrasti; conditions: Abutilon theophrasti, pre-emergence, 336 h; 0.25 lb/acre; read-out: percent preemergent control
Procedure, shortened: as §1

wheat [18] = assay: Postemergent control of plant species; type: in vivo, Triticum aestivum; conditions: Triticum aestivum, post-emergence, 336 h, read-out: percent postemergent control
Procedure, shortened: (§2)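 Spray emulsion: acetone stock at twice final concentration plus equal volume water with 0.1% wetting agent, applied to separated greenhouse beds at 2-4 leaf stage. Assessed at ~two weeks; score reflects growth reduction compared with untreated plants.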

rape [19] = assay: Postemergent control of plant species; type: in vivo, Brassica napus; conditions: Brassica napus, post-emergence, 336 h, read-out: percent postemergent control
Procedure, shortened: as §2

yellow foxtail [20] = assay: Postemergent control of plant species; type: in vivo, Setaria lutescens; conditions: Setaria, post-emergence, 336 h, read-out: percent postemergent control
Procedure, shortened: as §2

sugar beet [21] = assay: Postemergent control of plant species; type: in vivo, Beta saccharifera; conditions: Beta vulgaris, post-emergence, 336 h, read-out: percent postemergent control
Procedure, shortened: as §2

crabgrass = assay: Postemergent control of plant species; type: in vivo, Digitaria spp.; conditions: Digitaria sanguinalis, post-emergence, 336 h, read-out: percent postemergent control
Procedure, shortened: as §2

velvetleaf [22] = assay: Postemergent control of plant species; type: in vivo, Abutilon theophrasti; conditions: Abutilon theophrasti, post-emergence, 336 h, read-out: percent postemergent control
Procedure, shortened: as §2

pigweed = assay: Postemergent control of plant species; type: in vivo, Amaranthus spp.; conditions: Amaranthus retroflexus, post-emergence, 336 h, read-out: percent postemergent control
Procedure, shortened: as §2

jimsonweed = assay: Postemergent control of plant species; type: in vivo, Datura stramonium; conditions: Datura stramonium, post-emergence, 336 h, read-out: percent postemergent control
Procedure, shortened: as §2

soybean [23] = assay: Postemergent control of plant species; type: in vivo, Glycine max.; conditions: Glycine max, post-emergence, 336 h, read-out: percent postemergent control
Procedure, shortened: as §2

corn [24] = assay: Postemergent control of plant species; type: in vivo, Zea mays; conditions: Zea mays, post-emergence, 336 h, read-out: percent postemergent control
Procedure, shortened: as §2

barnyardgrass [25] = assay: Postemergent control of plant species; type: in vivo, Echinochloa crusgalli; conditions: Echinochloa crus-galli, post-emergence, 336 h, read-out: percent postemergent control
Procedure, shortened: as §2

yellow nutsedge [26] = assay: Postemergent control of plant species; type: in vivo, Cyperus esculentus; conditions: Cyperus, post-emergence, 336 h, read-out: percent postemergent control
Procedure, shortened: as §2

wild oats [27] = assay: Postemergent control of plant species; type: in vivo, Avena fatua; conditions: Avena fatua, post-emergence, 336 h, read-out: percent postemergent control
Procedure, shortened: as §2

johnson grass [28] = assay: Postemergent control of plant species; type: in vivo, Sorghum halepense; conditions: Sorghum halepense, post-emergence, 336 h, read-out: percent postemergent control
Procedure, shortened: as §2

rice [29] = assay: Postemergent control of plant species; type: in vivo, Oryza sativa; conditions: Oryza sativa, post-emergence, 336 h, read-out: percent postemergent control
Procedure, shortened: as §2

annual morning glory [30] = assay: Postemergent control of plant species; type: in vivo, Ipomoea spp.; conditions: Ipomoea, post-emergence, 336 h, read-out: percent postemergent control
Procedure, shortened: as §2

cotton [31] = assay: Postemergent control of plant species; type: in vivo, Gossypium spp.; conditions: Gossypium hirsutum, post-emergence, 336 h, read-out: percent postemergent control
Procedure, shortened: as §2

sorghum [32] = assay: Postemergent control of plant species; type: in vivo, Sorghum vulgare; conditions: Sorghum, post-emergence, 336 h, read-out: percent postemergent control
Procedure, shortened: as §2

SMILES: Cc1cc(C)n2nc(S(=O)(=O)Nc3c(F)cccc3Oc3ccc(C(F)(F)F)cc3Cl)nc2n1 [Compound 98]
- % NH4-N Remaining After 2 Weeks Incubation ([1]; 0.06 ppm): 0%
- % NH4-N Remaining After 2 Weeks Incubation ([1]; 0.25 ppm): 25%
- % NH4-N Remaining After 2 Weeks Incubation ([1]; 1 ppm): 0%
- % NH4-N Remaining After 2 Weeks Incubation ([1]; 4 ppm): 37%
- minimal effective concentration [2]: 400 µg/mL

SMILES: CC(C)c1ccn2nc(S(=O)(=O)Nc3c(Cl)cccc3Cl)nc2n1 [Compound 204]
- pest or weed control at 280.212 g/ha (wild oats [3]): 0%
- plant injury at 280.212 g/ha (corn [4]): 40%
- plant injury at 280.212 g/ha (cotton [5]): 80%
- plant injury at 280.212 g/ha (soybean [6]): 0%
- pest or weed control at 280.212 g/ha (annual morning glory [7]): 0%
- plant injury at 280.212 g/ha (rape [8]): 40%
- % NH4-N Remaining After 2 Weeks Incubation ([1]; 0.6 ppm): 0%
- % NH4-N Remaining After 2 Weeks Incubation ([1]; 1.25 ppm): 0%
- % NH4-N Remaining After 2 Weeks Incubation ([1]; 2.5 ppm): 34%
- % NH4-N Remaining After 2 Weeks Incubation ([1]; 5 ppm): 56%
- % NH4-N Remaining After 2 Weeks Incubation ([1]; 10 ppm): 66%
- plant injury at 280.212 g/ha (sorghum [9]): 60%
- plant injury at 280.212 g/ha (sugar beet [10]): 90%
- minimal effective concentration [2]: 400 µg/mL
- pest or weed control at 280.212 g/ha (barnyardgrass [11]): 0%
- plant injury at 280.212 g/ha (rice [12]): 0%
- pest or weed control at 280.212 g/ha (yellow nutsedge [13]): 0%
- plant injury at 280.212 g/ha (wheat [14]): 0%
- pest or weed control at 280.212 g/ha (yellow foxtail [15]): 0%
- pest or weed control at 280.212 g/ha (johnson grass [16]): 0%
- pest or weed control at 280.212 g/ha (velvetleaf [17]): 0%

SMILES: COC(=O)c1cccc(C)c1N(Cc1ccccc1)S(=O)(=O)c1nc2nc(C)cc(C)n2n1 [Compound 267]
- plant injury at 500 ppm (wheat [18]): 0%
- plant injury at 500 ppm (rape [19]): 80%
- pest or weed control at 500 ppm (yellow foxtail [20]): 70%
- plant injury at 500 ppm (sugar beet [21]): 80%
- pest or weed control at 500 ppm (crabgrass): 90%
- pest or weed control at 500 ppm (velvetleaf [22]): 95%
- % NH4-N Remaining After 2 Weeks Incubation ([1]; 0.06 ppm): 0%
- % NH4-N Remaining After 2 Weeks Incubation ([1]; 0.25 ppm): 0%
- % NH4-N Remaining After 2 Weeks Incubation ([1]; 1 ppm): 0%
- % NH4-N Remaining After 2 Weeks Incubation ([1]; 4 ppm): 11%
- pest or weed control at 500 ppm (pigweed): 60%
- pest or weed control at 500 ppm (jimsonweed): 80%
- plant injury at 500 ppm (soybean [23]): 45%
- observed effect (postemergence) ([2]; 400 ppm): stunting
- minimal effective concentration [2]: 400 µg/mL
- plant injury at 500 ppm (corn [24]): 0%
- pest or weed control at 500 ppm (barnyardgrass [25]): 35%
- pest or weed control at 500 ppm (yellow nutsedge [26]): 40%
- pest or weed control at 500 ppm (wild oats [27]): 0%
- pest or weed control at 500 ppm (johnson grass [28]): 75%
- plant injury at 500 ppm (rice [29]): 40%
- pest or weed control at 500 ppm (annual morning glory [30]): 90%
- plant injury at 500 ppm (cotton [31]): 0%
- plant injury at 500 ppm (sorghum [32]): 65%
